Laboratory results taken from article PMC9944867, “Mechanistic in vitro studies indicate that the clinical drug–drug interactions between protease inhibitors and rosuvastatin are driven by inhibition of intestinal BCRP and hepatic OATP1B1 with minimal contribution from OATP1B3, NTCP and OAT3” (Pharmacology Research & Perspectives, 2023).
Where “and” joins values, the source holds several entries; their conditions need not be identical. Identical values can stand only once. Entries after “also recorded” stand apart in the source; their conditions may differ. Counter-ions that a name gives are not always drawn. Like-named read-outs stand apart in the source and are kept apart here. Marks after values point to notes of the source that are not given here.

Experiments:
BCRP [1] = tested on: BCRP; parameters: method as in PMID 21612343; conditions: ref [17]; cited from earlier work
OAT3 [2] = molecular target: T1, OAT3 (Homo sapiens, UniProt Q8TCC7); experiment: OAT3 single concentration inhibition screen in HEK293 cells; format: cell-based; conditions: human, HEK293 cells expressing OAT3 (with vector control cells), pH 7.4, probe [3H]-estrone 3-sulfate (1 μM); probenecid 300 μM; single concentration screens; read-out: Inhibition of OAT3 by positive control (mean), screen
T1 construct: host or cells: HEK293 TransportoCells
T1 sequence (Q8TCC7 1-542): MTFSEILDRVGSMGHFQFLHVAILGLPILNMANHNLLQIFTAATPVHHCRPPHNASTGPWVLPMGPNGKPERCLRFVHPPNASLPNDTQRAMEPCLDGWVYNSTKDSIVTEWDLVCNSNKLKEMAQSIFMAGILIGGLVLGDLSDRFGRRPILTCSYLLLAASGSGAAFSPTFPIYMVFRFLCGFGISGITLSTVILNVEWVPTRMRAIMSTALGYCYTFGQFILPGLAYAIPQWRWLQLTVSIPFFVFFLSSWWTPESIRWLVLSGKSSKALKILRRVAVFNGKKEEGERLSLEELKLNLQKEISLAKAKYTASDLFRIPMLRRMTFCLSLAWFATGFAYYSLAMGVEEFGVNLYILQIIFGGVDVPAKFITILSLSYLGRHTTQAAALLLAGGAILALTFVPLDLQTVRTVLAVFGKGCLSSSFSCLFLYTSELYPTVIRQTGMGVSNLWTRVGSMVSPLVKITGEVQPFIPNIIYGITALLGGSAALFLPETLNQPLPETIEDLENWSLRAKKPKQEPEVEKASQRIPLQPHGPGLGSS

[3] = read-out: [Cmax] mean steady-state maximum plasma concentration, total drug, cited from earlier work
[4] = Pharmacokinetic parameters of protease inhibitors in clinical interaction studies with rosuvastatin; conditions: calculated, clinical dose of Table 5
human OAT3 (SLC22A8) = molecular target: T2, human OAT3 (SLC22A8) (Homo sapiens, UniProt Q8TCC7); experiment: OAT3 single concentration inhibition screen in HEK293 cells; format: cell-based; conditions: ≥10x unbound [Cmax]: atazanavir 15 μM, darunavir 10 μM, lopinavir 3 μM, ritonavir 0.1 μM; probe 1 μM
T2 construct: host or cells: HEK293 TransportoCells
T2 sequence (Q8TCC7 1-542): T1 sequence (Q8TCC7 1-542)

human OATP1B1 (SLCO1B1) = molecular target: T3, human OATP1B1 (SLCO1B1) (Homo sapiens, UniProt Q9Y6L6); experiment: OATP1B1 inhibition in transporter-expressing HEK293 cells, [3H]-estradiol 17β-D-glucuronide uptake (IC50 determination); conditions: OATP1B1-mediated transport of [3H]-estradiol 17β-D-glucuronide (0.02 μM), HEK293
T3 sequence (Q9Y6L6 1-691): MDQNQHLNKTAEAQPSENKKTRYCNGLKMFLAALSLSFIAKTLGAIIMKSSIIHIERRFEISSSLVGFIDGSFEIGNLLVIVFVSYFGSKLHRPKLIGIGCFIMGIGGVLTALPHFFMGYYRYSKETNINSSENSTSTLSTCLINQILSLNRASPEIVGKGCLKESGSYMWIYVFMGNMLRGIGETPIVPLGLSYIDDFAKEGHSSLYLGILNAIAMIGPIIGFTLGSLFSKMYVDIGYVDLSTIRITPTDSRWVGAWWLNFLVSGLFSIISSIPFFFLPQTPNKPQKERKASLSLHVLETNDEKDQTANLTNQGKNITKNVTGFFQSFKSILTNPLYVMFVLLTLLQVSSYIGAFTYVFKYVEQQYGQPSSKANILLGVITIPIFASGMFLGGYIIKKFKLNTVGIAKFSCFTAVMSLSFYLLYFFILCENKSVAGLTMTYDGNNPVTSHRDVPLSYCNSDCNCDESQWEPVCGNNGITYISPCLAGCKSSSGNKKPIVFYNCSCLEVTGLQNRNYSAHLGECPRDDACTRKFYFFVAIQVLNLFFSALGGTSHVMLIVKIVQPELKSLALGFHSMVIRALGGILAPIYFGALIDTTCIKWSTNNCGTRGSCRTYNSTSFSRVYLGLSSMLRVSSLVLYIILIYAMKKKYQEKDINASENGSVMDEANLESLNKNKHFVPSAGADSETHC
Description: (§1) OATP1B1, OATP1B3, NTCP and vector control cell lines were cultured and subsequent transporter assays conducted as described above using the same transporter‐specific probe substrates and incubation times. For OATP1B1, the probe substrate was [^3H]‐estradiol 17β‐D‐glucuronide (0.02 μM) incubated for 2 min, with rifamycin SV (100 μM) as positive control inhibitor. For IC50 determinations, the only difference to the method performed above was that the 15‐min pre‐incubation step contained a range of six concentrations of protease inhibitor drug, and subsequent incubations were conducted with the same six concentration levels of drug rather than with a single concentration.

human NTCP (SLC10A1) = molecular target: T4, human NTCP (SLC10A1) (Homo sapiens, UniProt Q14973); experiment: NTCP single concentration inhibition screen in HEK293 cells; format: cell-based; conditions: ≥10x [Iin max u]: atazanavir 50 μM, darunavir 15 μM, lopinavir 5 μM, ritonavir 0.3 μM; [3H]-taurocholic acid 1 μM
T4 construct: host or cells: HEK293 TransportoCells
T4 sequence (Q14973 1-349): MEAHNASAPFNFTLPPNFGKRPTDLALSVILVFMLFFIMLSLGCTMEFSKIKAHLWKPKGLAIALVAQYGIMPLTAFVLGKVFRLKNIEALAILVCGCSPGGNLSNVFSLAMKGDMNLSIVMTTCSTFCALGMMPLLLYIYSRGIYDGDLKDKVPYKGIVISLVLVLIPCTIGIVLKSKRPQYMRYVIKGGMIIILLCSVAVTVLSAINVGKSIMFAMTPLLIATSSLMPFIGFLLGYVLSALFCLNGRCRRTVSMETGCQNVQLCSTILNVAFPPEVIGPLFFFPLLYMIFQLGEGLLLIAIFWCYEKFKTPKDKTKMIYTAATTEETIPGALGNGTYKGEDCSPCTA

[5] = human, in vivo
BCRP [6] = molecular target: T5, BCRP (Homo sapiens, UniProt Q9UNQ0); experiment: Caco-2 unidirectional (B-A) BCRP inhibition assay, [3H]-estrone 3-sulfate transport (IC50 determination)
T5 sequence (Q9UNQ0 1-655): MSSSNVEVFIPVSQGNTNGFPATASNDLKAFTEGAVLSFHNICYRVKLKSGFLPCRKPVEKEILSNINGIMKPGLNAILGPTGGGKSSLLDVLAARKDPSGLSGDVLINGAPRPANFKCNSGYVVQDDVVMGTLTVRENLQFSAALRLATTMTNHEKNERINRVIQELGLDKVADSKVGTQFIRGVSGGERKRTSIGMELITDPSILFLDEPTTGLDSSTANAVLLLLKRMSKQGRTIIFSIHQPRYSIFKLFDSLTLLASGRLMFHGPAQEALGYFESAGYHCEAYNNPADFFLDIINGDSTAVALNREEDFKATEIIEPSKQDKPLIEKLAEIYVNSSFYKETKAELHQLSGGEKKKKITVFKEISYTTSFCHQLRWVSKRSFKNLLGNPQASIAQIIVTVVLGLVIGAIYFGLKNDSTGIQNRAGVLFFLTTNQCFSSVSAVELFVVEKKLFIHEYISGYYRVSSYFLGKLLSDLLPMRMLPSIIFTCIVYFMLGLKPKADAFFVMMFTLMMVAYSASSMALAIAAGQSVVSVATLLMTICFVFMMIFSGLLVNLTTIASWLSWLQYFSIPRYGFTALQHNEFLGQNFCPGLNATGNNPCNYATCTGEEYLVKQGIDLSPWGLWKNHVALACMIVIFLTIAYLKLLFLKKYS
Description: The methodology used was adapted from the previously validated Caco‐2 unidirectional (basolateral to apical; B‐A) BCRP inhibition assay.[13]
The BCRP inhibition experiments were performed between day 18 to 22 post‐seeding. […] After pre‐incubation, transport buffer was removed and the appropriate donor solutions were added to the basolateral donor compartment. […] Receiver solutions (final DMSO concentration of ≤1 % v/v) in transport buffer containing either the corresponding concentration of test inhibitor or DMSO (vehicle control), and the fluorescent cell monolayer integrity marker lucifer yellow (100 μM), were added to the apical compartments (total volume = 90 μL). Incubations were conducted in triplicate wells per assay condition in a heated incubator at 37°C for 90 min. Following the incubation, the amount (pmol) of [^3H]‐estrone 3‐sulfate appearing in the receiver compartment was determined by sampling (50 μL) into a white walled clear bottomed multiwell plate, to which scintillation fluid (200 μL) was added, and then samples counted on a Microbeta2 liquid scintillation counter (PerkinElmer). The quantified amount (derived from disintegrations per minute; DPM) of [^3H]‐estrone 3‐sulfate was subsequently converted to concentration (pmol/mL) and used to calculate apparent permeability (Papp), as described previously.[18]

OAT3 [7] = tested on: OAT3; parameters: method as in Yoshida et al.[32]; conditions: up to 10 μM; ref Yoshida et al.[32]; cited from earlier work
[8] = cited from earlier work
OATP1B1 = molecular target: T6, OATP1B1 (Homo sapiens, UniProt Q9Y6L6); experiment: OATP1B1 inhibition in transporter-expressing HEK293 cells, [3H]-estradiol 17β-D-glucuronide uptake (IC50 determination); conditions: human, HEK293 cells expressing OATP1B1 (with vector control cells), pH 7.4, probe [3H]-estradiol 17β-D-glucuronide (0.02 μM)
T6 sequence (Q9Y6L6 1-691): T3 sequence (Q9Y6L6 1-691)
Description: as §1

C[C@]12CC[C@@H]3c4ccc(OS(=O)(=O)O)cc4CC[C@H]3[C@@H]1CCC2=O [estrone 3‐sulfate, Estrone 3‐sulfate sodium salt]
Km (BCRP [1]): 7.4 µM

CCCN(CCC)S(=O)(=O)c1ccc(C(=O)O)cc1 [probenecid]
inhibition at 3 min, 300 μM (OAT3 [2]): 90.6%

CC(C)c1nc(CN(C)C(=O)N[C@H](C(=O)N[C@@H](Cc2ccccc2)C[C@H](O)[C@H](Cc2ccccc2)NC(=O)OCc2cncs2)C(C)C)cs1 [ritonavir]
Cmax ([3]; clinical dose of Table 5, ref Elsby et al.[1]): 0.93 µM | [Ig] maximal enterocyte concentration ([4]; (FaFg × ka × dose)/Qent): 1.39 ^f μM | [Iin max u] unbound maximum hepatic inlet concentration [4]: 0.0131 µM | [Iin max] maximum hepatic inlet concentration [4]: 1.19 ^f μM | Inhibition of OAT3-mediated [3H]-estrone 3-sulfate transport, single concentration screen (human OAT3 (SLC22A8)): neither atazanavir, darunavir, lopinavir nor ritonavir inhibited OAT3 transport

CC(C)CN(C[C@@H](O)[C@H](Cc1ccccc1)NC(=O)O[C@H]1CO[C@H]2OCC[C@H]21)S(=O)(=O)c1ccc(N)cc1 [darunavir]
IC50 (human OATP1B1 (SLCO1B1); IC50, determined values from different occasions (OATP1B1), single occasion): 12.4 µM and 7.89 µM and 8.29 µM | IC50 (human OATP1B1 (SLCO1B1); IC50 mean (OATP1B1), mean (±SD) of three occasions): 9.53 µM | Cmax ([3]; 600 mg, ref Kakuda et al.[36]): 10.6 µM | Inhibition of NTCP-mediated probe substrate transport, single concentration screen (human NTCP (SLC10A1)): neither darunavir nor ritonavir when tested at a single concentration greater than or equal to ten times their [Iin max u] produced inhibition; also recorded: not an inhibitor | [Ig] maximal enterocyte concentration [5]: 73.0 ^b μM | [Iin max] maximum hepatic inlet concentration [5]: 24.2 ^b μM | IC50 (BCRP [6]): 126 µM and 154 µM and 148 µM | IC50 (BCRP [6]; IC50 mean (BCRP), BCRP-mediated B-A transport of [3H]-estrone 3-sulfate (1 μM), Caco-2, mean (±SD) of occasions, IC50 equates to Ki): 143 µM | [Iin max u] unbound maximum hepatic inlet concentration [4]: 1.21 µM | Inhibition of OAT3, published (OAT3 [7]): no inhibition

CC(C)c1nc(N(C)S(C)(=O)=O)nc(-c2ccc(F)cc2)c1/C=C/[C@@H](O)C[C@@H](O)CC(=O)O [rosuvastatin]
OAT3 ƒe ([8]; active renal secretion, ref [1]): 0.25 | OATP1B1 ƒe ([8]; hepatic uptake, ref [1]): 0.38 | fraction absorbed ([8]; intestinal BCRP efflux as barrier to absorption, ref [1]): 0.5 | BCRP ƒe ([8]; intestinal BCRP efflux, ref [1]): 0.5 | NTCP ƒe ([8]; ref [13]): 0.21 | OATP1B3 ƒe ([8]; ref [13]): 0.11 | overall hepatic elimination ƒe ([8]; ref [13]): 0.7

CO[C@H]1/C=C/O[C@@]2(C)Oc3c(C)c(O)c4c(O)c(cc(O)c4c3C2=O)NC(=O)/C(C)=C\C=C\[C@H](C)[C@H](O)[C@@H](C)[C@@H](O)[C@@H](C)[C@H](OC(C)=O)[C@@H]1C [rifamycin SV, rifamycin SV sodium salt]
inhibition at 2 min, 100 μM (OATP1B1): 96.5 ± 3.2%
